pIC50: −log10 of the molar value. “And” between values parts separate entries of the source, which are not always exact repeats. Equal entries are not always repeated.
Columns and labels:
APP/PS1 mice = assay: morphometric analysis of Aβ plaques by size (Supplementary Fig 5d); format: in vivo, mouse
Protocol: Thioflavin S (Sigma-Aldrich) staining was carried out according to previously described procedures. We used 6E10 (mouse, 1:100, Signet, SIG39300), anti-20G10 (mouse, 1:1000, provided by D. R. Howlett, GlaxoSmithKline, Harlow, Essex, UK) for Aβ42, anti-G30 (rabbit, 1:1000, provided by D. R. Howlett) for Aβ40, SMA (mouse, 1:400, Sigma-Aldrich, A2547), AT8 (mouse, 1:500, Thermo Fisher Scientific, MN1020), Caspase-3 (mouse, 1:200, Novus Biologicals, NB100-56708), ac-S565 (rabbit, 1:100), COX2 (mouse, 1:250, Thermo Fisher Scientific, 35-8200), Iba1 (rabbit, 1:500, Wako, 019-19941 and goat, Abcam, ab5076), NeuN (mouse, 1:500, Millipore, MAB177), GFAP (rabbit, 1:500, Dako, N1506 and chicken, 1:500, Abcam, ab4674), and Lamp1 (mouse, 1:200, Abcam, ab24170). The sections were analyzed with a laser-scanning confocal microscope (FV3000; Olympus) or with a BX51 microscope (Olympus). MetaMorph software (Molecular Devices) was used to quantification. Three-dimensional reconstruction of microglia was recorded and analyzed using IMARIS software (Bitplane)[11]. For the analysis of age-dependent microglial COX2^+ CX3CR1^+ cells in WT and APP/PS1 mice, COX2 (rabbit, 1:100, Abcam, ab15191) and CX3CR1 (mouse, 1:100, BioLegend, 149008) antibody were used and the images were acquired on Alexa 488 and APC Channel with performed using Operetta CLS and Analysis Software 4.5 (Perkin-Elmer).
Transgenic mouse lines over-expressing the hAPP695swe (APP) and presenilin-1M146V (PS1) mutations were originated from GlaxoSmithKline (Harlow, UK)[32] and maintained as described previously. We purchased 5×FAD mice from Jackson Labs (Stock number. 34840-JAX). Because APP/PS1 and 5xFAD mice show sex differences in disease progression, we used only male mice. To examine possible therapeutic effect of N-AS and aspirin in APP/PS1 mice, the N-AS (30 mg kg^−1, Sigma-Aldrich, 01912) was injected daily s.c. for 8 weeks to 7-months-old APP/PS1 mice until the age of 9 months, and aspirin (2 mg kg^−1, Sigma-Aldrich, A5376)[33] was administrated orally to 7-months-old APP/PS1 mice for 8 weeks. Also, to confirm possible therapeutic efficacy of N-AS in 5×FAD, the N-AS (30 mg kg^−1, Sigma-Aldrich, 01912) was injected daily s.c. for 4 weeks to 3-months-old 5×FAD mice until the age of 4 months. Block randomization method was used to allocate the animals to experimental groups. To eliminate the bias, we were blinded in experimental progress such as data collection and data analysis. Mice were housed at temperature of 22 °C and a 12 h day/12 h night cycle with free access to tap water and food pellets. All protocols were approved by the Kyungpook National University Institutional Animal Care and Use Committee.

CYP 1A2 = molecular target: T1, CYP 1A2 (Homo sapiens, UniProt P05177); assay: cytochrome P450 inhibition in human liver microsomes; format: in vitro ADME
T1 construct: from tissue; host or cells: human liver microsomes
T1 sequence (P05177 whole entry): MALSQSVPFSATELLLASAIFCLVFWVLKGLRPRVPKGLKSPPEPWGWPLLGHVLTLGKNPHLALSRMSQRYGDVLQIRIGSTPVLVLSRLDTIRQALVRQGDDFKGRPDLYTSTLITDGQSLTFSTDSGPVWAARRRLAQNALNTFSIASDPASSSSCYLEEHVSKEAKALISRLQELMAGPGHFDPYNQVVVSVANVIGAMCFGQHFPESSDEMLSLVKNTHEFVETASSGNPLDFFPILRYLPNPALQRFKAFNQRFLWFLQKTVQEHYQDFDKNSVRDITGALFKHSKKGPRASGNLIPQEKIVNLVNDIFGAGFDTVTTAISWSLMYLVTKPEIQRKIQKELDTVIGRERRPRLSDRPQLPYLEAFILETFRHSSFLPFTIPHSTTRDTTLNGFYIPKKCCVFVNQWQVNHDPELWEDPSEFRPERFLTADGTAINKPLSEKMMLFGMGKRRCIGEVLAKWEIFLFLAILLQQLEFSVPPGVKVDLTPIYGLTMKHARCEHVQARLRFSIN
Protocol: (§1) A 10 μl aliquot of this solution was then diluted using 90 μl of 100 mM potassium phosphate buffer (pH 7.4). Probe substrate cocktail solutions for seven major cytochrome P450 isozymes (phenacetin (100 μM for 1A2), bupropion (50 μM for 2B6), diclofenac (20 μM for 2C9), mephenytoin (100 μM for 2C19), dextromethorphan (5 μM for 2D6), chlorzoxazone (50 μM for 2E1), and midazolam (5 μM for 3A4)) were prepared with phosphate buffer. […] Reactions were stopped at 15 min by the addition of 200 μl cold acetonitrile (containing propranolol as internal standard at 20 ng ml^−1) and centrifuged at 17,968×g for 10 min. A 2 μl aliquot of the supernatant was injected into the LC-MS/MS system. The ratio of peak area of test compound /internal standard was used to determine the % metabolic activity of probe substrate according to the concentrations of N-AS added.

CYP 2E1 = molecular target: T2, CYP 2E1 (Homo sapiens, UniProt P05181); assay: as above; format: in vitro ADME
T2 construct: from tissue; host or cells: human liver microsomes
T2 sequence (P05181 whole entry): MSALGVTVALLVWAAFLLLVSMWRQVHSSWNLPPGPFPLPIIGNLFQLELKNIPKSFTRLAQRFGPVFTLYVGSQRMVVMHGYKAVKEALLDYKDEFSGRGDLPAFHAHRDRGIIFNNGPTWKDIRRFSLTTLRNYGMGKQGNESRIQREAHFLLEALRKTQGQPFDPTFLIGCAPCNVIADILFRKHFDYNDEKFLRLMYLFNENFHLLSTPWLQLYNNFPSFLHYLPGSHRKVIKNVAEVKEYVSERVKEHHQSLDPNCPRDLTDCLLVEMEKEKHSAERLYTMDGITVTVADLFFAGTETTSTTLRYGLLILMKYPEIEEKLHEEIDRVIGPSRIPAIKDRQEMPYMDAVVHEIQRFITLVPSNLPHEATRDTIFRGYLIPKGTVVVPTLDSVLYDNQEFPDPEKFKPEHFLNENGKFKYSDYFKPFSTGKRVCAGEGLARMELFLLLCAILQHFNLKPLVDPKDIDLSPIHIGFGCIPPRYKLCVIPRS
Protocol: as §1

CYP 2B6 = molecular target: T3, CYP 2B6 (Homo sapiens, UniProt P20813); assay: as above; format: in vitro ADME
T3 construct: from tissue; host or cells: human liver microsomes
T3 sequence (P20813 whole entry): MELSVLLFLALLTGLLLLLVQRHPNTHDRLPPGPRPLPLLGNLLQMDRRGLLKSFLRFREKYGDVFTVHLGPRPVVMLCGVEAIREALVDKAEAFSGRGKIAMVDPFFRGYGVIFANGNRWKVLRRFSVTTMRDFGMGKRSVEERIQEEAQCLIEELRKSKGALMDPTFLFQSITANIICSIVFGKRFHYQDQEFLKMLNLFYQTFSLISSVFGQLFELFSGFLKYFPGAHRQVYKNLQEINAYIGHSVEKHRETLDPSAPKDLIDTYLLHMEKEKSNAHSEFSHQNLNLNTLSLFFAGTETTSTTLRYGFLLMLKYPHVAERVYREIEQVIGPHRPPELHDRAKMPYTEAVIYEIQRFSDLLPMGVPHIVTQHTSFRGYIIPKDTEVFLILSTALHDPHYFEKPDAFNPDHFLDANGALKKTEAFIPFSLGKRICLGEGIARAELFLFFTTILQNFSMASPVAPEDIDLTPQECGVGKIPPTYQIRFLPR
Protocol: as §1

CYP 2D6 = molecular target: T4, CYP 2D6 (Homo sapiens, UniProt P10635); assay: as above; format: in vitro ADME
T4 construct: from tissue; host or cells: human liver microsomes
T4 sequence (P10635 whole entry): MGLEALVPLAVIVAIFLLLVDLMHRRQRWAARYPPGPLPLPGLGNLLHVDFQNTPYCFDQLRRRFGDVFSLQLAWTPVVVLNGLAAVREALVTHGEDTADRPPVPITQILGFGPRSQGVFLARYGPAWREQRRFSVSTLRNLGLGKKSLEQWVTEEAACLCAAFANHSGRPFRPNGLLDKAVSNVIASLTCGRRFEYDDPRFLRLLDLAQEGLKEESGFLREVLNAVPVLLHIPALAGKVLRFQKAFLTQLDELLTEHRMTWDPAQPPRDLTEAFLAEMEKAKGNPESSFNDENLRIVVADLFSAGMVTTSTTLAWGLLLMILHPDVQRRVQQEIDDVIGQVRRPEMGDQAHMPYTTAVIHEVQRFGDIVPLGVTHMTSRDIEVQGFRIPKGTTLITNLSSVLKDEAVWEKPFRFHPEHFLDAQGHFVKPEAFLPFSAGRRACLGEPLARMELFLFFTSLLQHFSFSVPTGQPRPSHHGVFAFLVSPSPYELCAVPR
Protocol: as §1

CYP 2C9 = molecular target: T5, CYP 2C9 (Homo sapiens, UniProt P11712); assay: as above; format: in vitro ADME
T5 construct: from tissue; host or cells: human liver microsomes
T5 sequence (P11712 whole entry): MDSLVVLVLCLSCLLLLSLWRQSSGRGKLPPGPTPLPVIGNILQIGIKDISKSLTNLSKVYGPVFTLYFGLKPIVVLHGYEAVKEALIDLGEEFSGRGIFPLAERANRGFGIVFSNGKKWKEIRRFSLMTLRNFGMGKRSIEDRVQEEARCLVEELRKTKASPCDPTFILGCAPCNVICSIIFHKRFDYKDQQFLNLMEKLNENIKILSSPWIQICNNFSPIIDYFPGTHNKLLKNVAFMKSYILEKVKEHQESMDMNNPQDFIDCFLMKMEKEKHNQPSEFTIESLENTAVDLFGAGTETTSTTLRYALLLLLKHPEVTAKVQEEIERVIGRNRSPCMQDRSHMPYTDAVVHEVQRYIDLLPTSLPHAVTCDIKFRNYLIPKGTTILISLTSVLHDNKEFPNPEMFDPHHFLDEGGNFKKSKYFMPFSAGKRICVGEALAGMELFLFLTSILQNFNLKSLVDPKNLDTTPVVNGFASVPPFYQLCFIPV
Protocol: as §1

CYP 2C19 = molecular target: T6, CYP 2C19 (Homo sapiens, UniProt P33261); assay: as above; format: in vitro ADME
T6 construct: from tissue; host or cells: human liver microsomes
T6 sequence (P33261 whole entry): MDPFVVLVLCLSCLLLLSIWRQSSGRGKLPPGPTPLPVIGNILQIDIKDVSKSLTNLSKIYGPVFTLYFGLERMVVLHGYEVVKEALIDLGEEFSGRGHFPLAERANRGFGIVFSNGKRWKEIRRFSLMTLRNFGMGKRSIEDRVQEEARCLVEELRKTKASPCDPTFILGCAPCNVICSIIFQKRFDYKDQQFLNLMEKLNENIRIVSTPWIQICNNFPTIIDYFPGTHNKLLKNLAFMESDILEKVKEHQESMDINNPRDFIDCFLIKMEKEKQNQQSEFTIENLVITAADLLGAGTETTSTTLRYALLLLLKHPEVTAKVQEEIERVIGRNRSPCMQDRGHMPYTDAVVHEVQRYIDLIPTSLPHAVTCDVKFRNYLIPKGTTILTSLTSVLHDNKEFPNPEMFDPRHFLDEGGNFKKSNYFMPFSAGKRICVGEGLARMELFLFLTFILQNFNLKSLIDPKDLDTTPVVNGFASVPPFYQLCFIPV
Protocol: as §1

CYP 3A4 = molecular target: T7, CYP 3A4 (Homo sapiens, UniProt P08684); assay: as above; format: in vitro ADME
T7 construct: from tissue; host or cells: human liver microsomes
T7 sequence (P08684 whole entry): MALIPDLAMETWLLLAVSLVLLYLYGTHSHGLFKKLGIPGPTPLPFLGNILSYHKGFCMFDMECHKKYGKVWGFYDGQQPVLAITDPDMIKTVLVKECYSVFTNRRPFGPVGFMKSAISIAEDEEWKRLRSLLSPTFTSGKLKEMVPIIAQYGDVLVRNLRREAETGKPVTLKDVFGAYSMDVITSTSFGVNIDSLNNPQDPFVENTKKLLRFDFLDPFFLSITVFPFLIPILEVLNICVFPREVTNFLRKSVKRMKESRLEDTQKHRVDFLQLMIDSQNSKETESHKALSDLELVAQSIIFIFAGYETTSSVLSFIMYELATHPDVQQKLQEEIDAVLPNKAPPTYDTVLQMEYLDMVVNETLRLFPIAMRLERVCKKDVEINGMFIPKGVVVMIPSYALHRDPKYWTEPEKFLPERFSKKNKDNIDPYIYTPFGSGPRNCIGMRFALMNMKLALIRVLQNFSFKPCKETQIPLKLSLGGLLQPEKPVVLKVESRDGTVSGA
Protocol: as §1

[1] = APP/PS1 + N-AS, individual values, sFig 5d, in % (unit assumed)

CCCCCCCCCCCCC/C=C/[C@@H](O)[C@H](CO)NC(C)=O [N-AS, N-((2S,3R,E)-1,3-Dihydroxyoctadec-4-en-2-yl)acetamide]
Aβ plaques by size, 25-50mM (APP/PS1 mice; [1]): 2.008 and 5.136 and 3.485 and 2.167 and 5.808 and 4.496 and 5.407 and 0.9834 and 1.041
Aβ plaques by size, <25mM (APP/PS1 mice; [1]): 96.4567 and 90.0482 and 94.697 and 95.0162 and 89.7245 and 91.9498 and 90.3491 and 98.0585 and 97.8053
Aβ plaques by size, >50mM (APP/PS1 mice; [1]): 1.535 and 4.815 and 1.818 and 2.8169 and 4.468 and 3.555 and 4.244 and 0.9581 and 1.154
medium (25–50 μm) and large-sized (>50 μm) plaques (APP/PS1 mice; N-AS vs vehicle APP/PS1): significant reduction of medium (25–50 μm) and large-sized (>50 μm) plaques
number of small (<25 μm) plaques (APP/PS1 mice; N-AS vs vehicle APP/PS1): significantly increased number of small (<25 μm) plaques
pIC50 (CYP 1A2): < 5.00
activity at 15 min, 25 µM (CYP 1A2; human, liver microsomes, pH 7.4, probe phenacetin, N-AS 25 µM, read-out: % of control at 25 µM): 94.6%
pIC50 (CYP 2E1): < 5.00
activity at 15 min, 25 µM (CYP 2E1; human, liver microsomes, pH 7.4, probe chlorzoxazone, N-AS 25 µM, read-out: % of control at 25 µM): 84%
pIC50 (CYP 2B6): < 5.00
activity at 15 min, 25 µM (CYP 2B6; human, liver microsomes, pH 7.4, probe bupropion, N-AS 25 µM, read-out: % of control at 25 µM): 92.7%
pIC50 (CYP 2D6): < 5.00
activity at 15 min, 25 µM (CYP 2D6; human, liver microsomes, pH 7.4, probe dextromethorphan, N-AS 25 µM, read-out: % of control at 25 µM): 104%
pIC50 (CYP 2C9): < 5.00
activity at 15 min, 25 µM (CYP 2C9; human, liver microsomes, pH 7.4, probe diclofenac, N-AS 25 µM, read-out: % of control at 25 µM): 95.5%
pIC50 (CYP 2C19): < 5.00
activity at 15 min, 25 µM (CYP 2C19; human, liver microsomes, pH 7.4, probe mephenytoin, N-AS 25 µM, read-out: % of control at 25 µM): 79.6%
pIC50 (CYP 3A4): < 5.00
activity at 15 min, 25 µM (CYP 3A4; human, liver microsomes, pH 7.4, probe midazolam, N-AS 25 µM, read-out: % of control at 25 µM): 114%

— PMC7217877, “N-AS-triggered SPMs are direct regulators of microglia in a model of Alzheimer’s disease” (Nature Communications, 2020)
